The text below walks through data of PubChem BioAssay AID1259407 (Chemical Carcinogenesis Research Information System (CCRIS), 2018).

Calls of active or inactive are those of the source. The rule behind the calls is not given here.

In the data set the test system is CCRIS mutagenicity, Ames/micronucleus/aberration tests. The experiment in a line: CCRIS mutagenicity studies.
The mark [1] stands for this setting: Test System: AMES SALMONELLA TYPHIMURIUM, Strain/Indicator: TA98, Metabolic Activation: NONE, Method: PREINCUBATION
The mark [2] stands for this setting: Test System: AMES SALMONELLA TYPHIMURIUM, Strain/Indicator: TA100, Metabolic Activation: NONE, Method: PREINCUBATION
[3] abbreviates: Test System: AMES SALMONELLA TYPHIMURIUM, Strain/Indicator: TA1535, Metabolic Activation: NONE, Method: PREINCUBATION
Where [4] appears, read: Test System: AMES SALMONELLA TYPHIMURIUM, Strain/Indicator: TA98, Metabolic Activation: NONE, Method: STANDARD PLATE.
Setting [5] is: Test System: AMES SALMONELLA TYPHIMURIUM, Strain/Indicator: TA100, Metabolic Activation: NONE, Method: STANDARD PLATE.
The mark [6] stands for this setting: Test System: AMES SALMONELLA TYPHIMURIUM, Strain/Indicator: TA1537, Metabolic Activation: NONE, Method: STANDARD PLATE.
The mark [7] stands for this setting: Test System: AMES SALMONELLA TYPHIMURIUM, Strain/Indicator: TA97, Metabolic Activation: NONE, Method: PREINCUBATION
Where [8] appears, read: Test System: AMES SALMONELLA TYPHIMURIUM, Strain/Indicator: TA100, Metabolic Activation: HAMSTER, LIVER, S-9, AROCLOR 1254 (10%), Method: PREINCUBATION
Setting [9] is: Test System: AMES SALMONELLA TYPHIMURIUM, Strain/Indicator: TA100, Metabolic Activation: RAT, LIVER, S-9, AROCLOR 1254 (10%), Method: PREINCUBATION

As for `CC1CCc2c(N3CCC(O)CC3)c(F)cc3c(=O)c(C(=O)O)cn1c23` (configuration not stated), the mutagenic call by setting is: under setting [1], “inactive; negative”; (Test System: AMES SALMONELLA TYPHIMURIUM, Strain/Indicator: TA98, Metabolic Activation: RAT, LIVER, S-9, NADPH, Method: PREINCUBATION) “inactive; negative”; under setting [2], “inactive; negative”; (Test System: AMES SALMONELLA TYPHIMURIUM, Strain/Indicator: TA100, Metabolic Activation: RAT, LIVER, S-9, NADPH, Method: PREINCUBATION) “inactive; negative”; under setting [3], “inactive; negative”; (Test System: AMES SALMONELLA TYPHIMURIUM, Strain/Indicator: TA1535, Metabolic Activation: RAT, LIVER, S-9, NADPH, Method: PREINCUBATION) “inactive; negative”. Besides, the mutagenic call (Test System: AMES SALMONELLA TYPHIMURIUM, Strain/Indicator: TA1537, Metabolic Activation: NONE, Method: PREINCUBATION) was “inactive; negative”; the mutagenic call (Test System: AMES SALMONELLA TYPHIMURIUM, Strain/Indicator: TA1537, Metabolic Activation: RAT, LIVER, S-9, NADPH, Method: PREINCUBATION) is “inactive; negative”; the mutagenic call (Test System: AMES SALMONELLA TYPHIMURIUM, Strain/Indicator: TA1538, Metabolic Activation: NONE, Method: PREINCUBATION) is “inactive; negative”; the mutagenic call (Test System: AMES SALMONELLA TYPHIMURIUM, Strain/Indicator: TA1538, Metabolic Activation: RAT, LIVER, S-9, NADPH, Method: PREINCUBATION) is “inactive; negative”; the mutagenic call (Test System: E. COLI, Strain/Indicator: WP2 UVRA, Metabolic Activation: RAT, LIVER, S-9, NADPH, Method: PREINCUBATION) was “inactive; negative”; the mutagenic call (Test System: E.COLI, Strain/Indicator: WP2 UVRA, Metabolic Activation: NONE, Method: PREINCUBATION) is “inactive; negative”.
On to `O=C1c2c(ccc3ccccc23)-c2ccc3ccccc3c21`, for which the mutagenic call was “inactive; negative” under setting [4] and “inactive; negative” under setting [5].
In the case of `COc1ccc([C@@H]2CC(=O)c3c(O)cc(O[C@@H]4O[C@H](CO[C@@H]5O[C@@H](C)[C@H](O)[C@@H](O)[C@H]5O)[C@@H](O)[C@H](O)[C@H]4O)cc3O2)cc1O`, the mutagenic call runs as follows: under setting [4], “inactive; negative”; (Test System: AMES SALMONELLA TYPHIMURIUM, Strain/Indicator: TA98, Metabolic Activation: RAT, LIVER, S-9, AROCLOR 1254, Method: STANDARD PLATE) “inactive; negative”; under setting [5], “inactive; negative”; (Test System: AMES SALMONELLA TYPHIMURIUM, Strain/Indicator: TA100, Metabolic Activation: RAT, LIVER, S-9, AROCLOR 1254, Method: STANDARD PLATE) “inactive; negative”; (Test System: AMES SALMONELLA TYPHIMURIUM, Strain/Indicator: TA1535, Metabolic Activation: NONE, Method: STANDARD PLATE) “inactive; negative”; (Test System: AMES SALMONELLA TYPHIMURIUM, Strain/Indicator: TA1535, Metabolic Activation: RAT, LIVER, S-9, AROCLOR 1254, Method: STANDARD PLATE) “inactive; negative”. The mutagenic call was “inactive; negative” under setting [6]; “inactive; negative” (Test System: AMES SALMONELLA TYPHIMURIUM, Strain/Indicator: TA1537, Metabolic Activation: RAT, LIVER, S-9, AROCLOR 1254, Method: STANDARD PLATE); “inactive; negative” (Test System: AMES SALMONELLA TYPHIMURIUM, Strain/Indicator: TA1538, Metabolic Activation: NONE, Method: STANDARD PLATE); “inactive; negative” (Test System: AMES SALMONELLA TYPHIMURIUM, Strain/Indicator: TA1538, Metabolic Activation: RAT, LIVER, S-9, AROCLOR 1254, Method: STANDARD PLATE); “inactive; negative” (Test System: E. COLI, Strain/Indicator: WP2, Metabolic Activation: NONE, Method: STANDARD PLATE); “inactive; negative” (Test System: E. COLI, Strain/Indicator: WP2, Metabolic Activation: RAT, LIVER, S-9, AROCLOR 1254, Method: STANDARD PLATE).
Turning to `CCOc1ccccc1N`, the mutagenic call (Test System: AMES SALMONELLA TYPHIMURIUM, Strain/Indicator: TA97, Metabolic Activation: HAMSTER, LIVER, S-9, AROCLOR 1254 (10 OR 30%), Method: PREINCUBATION) was “inactive; negative”; the mutagenic call under setting [7] was “inactive; negative”; the mutagenic call (Test System: AMES SALMONELLA TYPHIMURIUM, Strain/Indicator: TA97, Metabolic Activation: RAT, LIVER, S-9, AROCLOR 1254 (10 OR 30%), Method: PREINCUBATION) was “inactive; negative”; the mutagenic call (Test System: AMES SALMONELLA TYPHIMURIUM, Strain/Indicator: TA98, Metabolic Activation: HAMSTER, LIVER, S-9, AROCLOR 1254 (10 OR 30%), Method: PREINCUBATION) is “inactive; negative”; the mutagenic call under setting [1] was “inactive; negative”; the mutagenic call (Test System: AMES SALMONELLA TYPHIMURIUM, Strain/Indicator: TA98, Metabolic Activation: RAT, LIVER, S-9, AROCLOR 1254 (10 OR 30%), Method: PREINCUBATION) was “inactive; negative”. For the same compound, the mutagenic call reads like this: under setting [8], “inactive; negative”; (Test System: AMES SALMONELLA TYPHIMURIUM, Strain/Indicator: TA100, Metabolic Activation: HAMSTER, LIVER, S-9, AROCLOR 1254 (30%), Method: PREINCUBATION) “inactive; negative”; under setting [2], “inactive; negative”; under setting [9], “inactive; negative”; (Test System: AMES SALMONELLA TYPHIMURIUM, Strain/Indicator: TA100, Metabolic Activation: RAT, LIVER, S-9, AROCLOR 1254 (30%), Method: PREINCUBATION) “inactive; negative”; (Test System: AMES SALMONELLA TYPHIMURIUM, Strain/Indicator: TA1535, Metabolic Activation: HAMSTER, LIVER, S-9, AROCLOR 1254 (10 OR 30%), Method: PREINCUBATION) “inactive; negative”. Also, the mutagenic call runs as follows: under setting [3], “inactive; negative”; (Test System: AMES SALMONELLA TYPHIMURIUM, Strain/Indicator: TA1535, Metabolic Activation: RAT, LIVER, S-9, AROCLOR 1254 (10 OR 30%), Method: PREINCUBATION) “inactive; negative”.
For `N#CCc1ccccc1[N+](=O)[O-]`, the mutagenic call (Test System: AMES SALMONELLA TYPHIMURIUM, Strain/Indicator: TA97, Metabolic Activation: HAMSTER, LIVER, S-9, AROCLOR 1254 (10%), Method: PREINCUBATION) is “inactive; negative”; the mutagenic call under setting [7] was “active; positive”; the mutagenic call (Test System: AMES SALMONELLA TYPHIMURIUM, Strain/Indicator: TA97, Metabolic Activation: RAT, LIVER, S-9, AROCLOR 1254 (10%), Method: PREINCUBATION) is “inactive; negative”; the mutagenic call (Test System: AMES SALMONELLA TYPHIMURIUM, Strain/Indicator: TA98, Metabolic Activation: HAMSTER, LIVER, S-9, AROCLOR 1254 (10%), Method: PREINCUBATION) was “inactive; negative”; the mutagenic call under setting [1] was “active; positive”; the mutagenic call (Test System: AMES SALMONELLA TYPHIMURIUM, Strain/Indicator: TA98, Metabolic Activation: RAT, LIVER, S-9, AROCLOR 1254 (10%), Method: PREINCUBATION) is “inactive; negative”. The mutagenic call is “active; positive” under setting [8]; “active; positive” under setting [2]; “active; positive” under setting [9]; “active; positive” (Test System: AMES SALMONELLA TYPHIMURIUM, Strain/Indicator: TA1535, Metabolic Activation: HAMSTER, LIVER, S-9, AROCLOR 1254 (10%), Method: PREINCUBATION); “inactive; negative” under setting [3]; “active; positive” (Test System: AMES SALMONELLA TYPHIMURIUM, Strain/Indicator: TA1535, Metabolic Activation: RAT, LIVER, S-9, AROCLOR 1254 (10%), Method: PREINCUBATION).
Turning to `Cn1c2ccccc2c2cc([N+](=O)[O-])ccc21`, the mutagenic call is “active; positive” under setting [4]; “active; positive” (Test System: AMES SALMONELLA TYPHIMURIUM, Strain/Indicator: TA98, Metabolic Activation: RAT LIVER S-9, AROCLOR 1254, Method: STANDARD PLATE); “active; positive” under setting [5]; “active; positive” (Test System: AMES SALMONELLA TYPHIMURIUM, Strain/Indicator: TA100, Metabolic Activation: RAT LIVER S-9, AROCLOR 1254, Method: STANDARD PLATE).
With `CN(C)CCNC(=O)c1cccn2cc(-c3ccccc3)nc12`, the mutagenic call under setting [6] is “active; positive”.
